These results are taken from patent publication US8569331B2 (ArQule, Inc., priority 2010, dated 2013).

SMILES strings stand for the structures. pIC50: −log10 of the molar value. Where a name gives a salt, the structure may show the parent alone.

For the assay, the target named is T1, AKT1 (Homo sapiens, UniProt P31749).
T1 construct: Full-length non-phosphorylated AKT1 is diluted in assay buffer
T1 sequence (P31749 whole entry): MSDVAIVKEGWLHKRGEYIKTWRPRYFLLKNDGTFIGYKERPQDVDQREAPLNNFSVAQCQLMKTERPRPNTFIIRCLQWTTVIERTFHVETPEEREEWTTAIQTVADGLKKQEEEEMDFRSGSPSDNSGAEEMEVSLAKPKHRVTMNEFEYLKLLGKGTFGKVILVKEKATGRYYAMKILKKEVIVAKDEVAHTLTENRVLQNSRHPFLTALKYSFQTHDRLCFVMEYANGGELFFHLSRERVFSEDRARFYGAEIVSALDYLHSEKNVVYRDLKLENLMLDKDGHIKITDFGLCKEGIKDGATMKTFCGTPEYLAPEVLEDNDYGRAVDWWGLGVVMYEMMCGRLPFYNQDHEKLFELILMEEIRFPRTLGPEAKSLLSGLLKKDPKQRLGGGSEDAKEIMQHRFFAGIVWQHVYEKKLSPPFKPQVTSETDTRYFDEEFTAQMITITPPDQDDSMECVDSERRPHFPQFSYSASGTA
Briefly: AKT1 Alpha Screen Assay. Conditions: full-length non-phosphorylated AKT1 8 nM, activated by PDK1 and MAPKAPK2, lipid vesicles, 50 μM ATP; biotinylated crosstide substrate; AlphaScreen. In kind it is biochemical. Here is the method: AKT1 activity is assayed using the GSK3-derived biotinylated peptide substrate, crosstide (biotin-[…]), and AlphaScreen™ (Amplified Luminescent Proximity Homogeneous Assay) technology. AKT1 activation is achieved by the addition of the activating kinases PDK1 and MAPKAPK2, lipid vesicles, and ATP. The extent of peptide phosphorylation is determined using a phospho-AKT substrate antibody and acceptor beads conjugated to Protein A and donor beads conjugated to streptavidin that will bind to the biotin on the peptide. Excitation of the donor beads converts ambient oxygen to excited singlet oxygen which, when in close proximity to acceptor beads, reacts with acceptor beads resulting in signal amplification.
Test inhibitors and controls are prepared in 10% DMSO at 10-fold the desired final concentration, and added to each well of a reaction plate (Corning 96-well half-area solid white nonbinding surface plate) in a volume of 2.5 μL. Full-length non-phosphorylated AKT1 is diluted in assay buffer (50 mM Tris, pH 8.0, 0.02 mg/mL BSA, 10 mM MgCl2, 1 mM EGTA, 10% glycerol, 0.2 mM Na3VO4, 1 mM DTT, 0.1 mM β-glycerophosphate, and 0.2 mM NaF) and added to each well in a volume of 17.5 μL for a final concentration in the 25 μL reaction of 8 nM (Akt1). […] Assay plates are incubated for 90 minutes at room temperature in the dark, and the plates are read on a Perkin Elmer Envision Multilabel plate reader (excitation wavelength: […], emission wavelength: 570 nm).
Reaction conditions: 2.5 μL 10× Akt inhibitor in 10% DMSO; 17.5 μL non-phosphorylated Akt or buffer for blank; 20 minute pre-incubation at room temperature; 5 μL Reaction Mix (5×ATP, 5×substrate, 5×PDK1, 5×MK2, and 5× lipid vesicle mixture); 30 minute incubation at room temperature; 10 μL Detection Buffer; 90 minute incubation at room temperature and Detection (excitation: 640 nm, emission: 570 nm).
(Alpha assays give light when donor and acceptor beads are brought close together.)
On to `NC1(c2ccc(-c3c(-c4ccoc4)nc4n3-c3cccnc3Nc3ccccc3-4)cc2)CCC1` [Example 9], for which the pIC50 was 7.55. To `NC1(c2ccc(-c3c(-c4cnccn4)nc4n3-c3cccnc3Nc3ccccc3-4)cc2)CCC1` [Example 15] belongs 7.85. In turn, `Nc1ncc(-c2nc3n(c2-c2ccc(C4(N)CCC4)cc2)-c2cccnc2Nc2ccccc2-3)cn1` [Example 31, trihydrochloride] showed a pIC50 of 8.52. To `COc1ncc(-c2nc3n(c2-c2ccc(C4(N)CCC4)cc2)-c2cccnc2Nc2ccccc2-3)s1` [Example 68] belongs 7.57; to `Cn1nccc1-c1nc2n(c1-c1ccc(C3(N)CCC3)cc1)-c1cccnc1Nc1ccccc1-2` [Example 70], 6.46. In turn, `NC1(c2ccc(-c3c(-c4cccs4)nc4n3-c3cccnc3Nc3ccccc3-4)cc2)CCC1` [Example 83] showed a pIC50 of 7.14. To `COc1ccc(-c2nc3n(c2-c2ccc(C4(N)CCC4)c(F)c2)-c2cccnc2Nc2ccccc2-3)cc1` [Example 127] belongs 7.08. To `NC1(c2ccc(-c3c(-c4ccc(F)cc4)nc4n3-c3cccnc3Nc3ccccc3-4)cc2)CCC1` [Example 134] belongs 7.28; to `NC1(c2ccc(-c3c(-c4ccc(F)cc4)nc4n3-c3cccnc3Nc3ccccc3-4)cc2F)CCC1` [Example 135], 6.92; to `NC1(c2ccc(-c3c(-c4ccccc4F)nc4n3-c3cccnc3Nc3ccccc3-4)cc2)CCC1` [Example 136], 7.08. In turn, `NC1(c2ccc(-c3c(-c4ccccc4F)nc4n3-c3cccnc3Nc3ccccc3-4)cc2F)CCC1` [Example 137] showed a pIC50 of 6.77. Then `NC1(c2ccc(-c3c(-c4ccc(-c5ccccc5)cc4)nc4n3-c3cccnc3Nc3ccccc3-4)cc2)CCC1` [Example 138], with 7.28; and `NC1(c2ccc(-c3c(-c4cccc(F)c4)nc4n3-c3cccnc3Nc3ccccc3-4)cc2)CCC1` [Example 139], with 7.13. On to `NC1(c2ccc(-c3c(-c4cccc(F)c4)nc4n3-c3cccnc3Nc3ccccc3-4)cc2F)CCC1` [Example 140], for which the pIC50 is 6.53. Take `Cc1ccccc1-c1nc2n(c1-c1ccc(C3(N)CCC3)cc1)-c1cccnc1Nc1ccccc1-2` [Example 141]: the pIC50 was 6.35. Then `Cc1ccccc1-c1nc2n(c1-c1ccc(C3(N)CCC3)c(F)c1)-c1cccnc1Nc1ccccc1-2` [Example 142], with 6.31; and `NCc1ccc(-c2c(-c3ccccc3)nc3n2-c2cccnc2Nc2ccccc2-3)cc1` [Example 143], with 6.91. In turn, `NC1(c2ccc(-c3nc4n(c3-c3ccccc3)-c3cccnc3Nc3ccccc3-4)cc2)CCC1` [Example 144] showed a pIC50 of 6.74. Compound `NC1(c2ccc(-c3c(CC(=O)Nc4ccccc4)nc4n3-c3cccnc3Nc3ccccc3-4)cc2)CCC1` [Example 145] had a pIC50 of less than 6.00. To `Cc1cccc(NC(=O)Cc2nc3n(c2-c2ccc(C4(N)CCC4)cc2)-c2cccnc2Nc2ccccc2-3)n1` [Example 146] belongs less than 6.00; to `C[C@H](N)c1ccc(-c2c(-c3ccccc3)nc3n2-c2cccnc2Nc2ccccc2-3)cc1` [Example 147], 7.34. To `C[C@@H](N)c1ccc(-c2c(-c3ccccc3)nc3n2-c2cccnc2Nc2ccccc2-3)cc1` [Example 148] belongs 7.18.

Turning to `NCc1ccc(-c2nc3n(c2-c2ccc(C4(N)CCC4)cc2)-c2cccnc2Nc2ccccc2-3)cc1` [Example 149], the negative-log IC50 (pIC50) is 7.74. As for `NC1(c2ccc(-c3c(-c4nccs4)nc4n3-c3cccnc3Nc3ccccc3-4)cc2)CCC1` [Example 150], the negative logarithm of the IC50 (pIC50) was 8.52.

Turning to `NC1(c2ccc(-c3c(-c4ncco4)nc4n3-c3cccnc3Nc3ccccc3-4)cc2)CCC1` [Example 151], the pIC50 is 8.40.

One may read the pIC50 as the negative decadic logarithm of the IC50, by convention in mol/L.
